# Structures can show the parent of a compound that is named as a salt. Where two headings read alike, the source gives them in different places.
# Experiments:
# [1] = tested on: S. aureus SMITH (MP) (sensitive); experiment: In vitro antibacterial evaluation, MIC by agar dilution; type: cell-based; details: Staphylococcus aureus; agar dilution, Muller-Hinton II agar, 18 hours at 35° C.; S. aureus SMITH (MP) (sensitive); read-out: MIC
# Description: (§1) Method for In Vitro Antibacterial Evaluation (Table I)
# (§2) The minimum inhibitory concentration (MIC), the lowest concentration of the antibiotic which inhibits growth of the test organism, is determined by the agar dilution method using Muller-Hinton II agar (Baltimore Biological Laboratories). An inoculum density of 1-5×10^5 CFU/ml and an antibiotic concentration (32-≤0.015 μg/ml) is used. The plates are incubated for 18 hours at 35° C. in a forced air incubator. The test organisms comprise strains sensitive to tetracycline and genetically defined strains that are resistant to tetracycline, due to inability to bind bacterial ribosomes (tetM).
# [2] = tested on: E. coli UBMS 89-2 (sensitive); experiment: as above; type: cell-based; details: Escherichia coli, Muller-Hinton II agar, 18 hours at 35° C.
# Description: as §1, §2
# Enteroc. spp. 12201 = experiment: as above; type: cell-based
# Description: as §1, §2
# E. coli ATCC 25922 = experiment: as above; type: cell-based; details: Escherichia coli
# Description: as §1, §2
# S. haemol. AVAH 88-3 = experiment: as above; type: cell-based; details: agar dilution, Muller-Hinton II agar, 18 hours at 35° C.; S. haemol. AVAH 88-3; read-out: MIC
# Description: as §1, §2
# [3] = tested on: S. aureus IVES 2943 (meth. resistant); experiment: as above; type: cell-based; details: Staphylococcus aureus, 18 h
# Description: as §1, §2
# [4] = tested on: S. aureus UBMS 88-4 (sensitive); experiment: as above; type: cell-based; details: Staphylococcus aureus; agar dilution, Muller-Hinton II agar, 18 hours at 35° C.; S. aureus UBMS 88-4 (sensitive); read-out: MIC
# Description: as §1, §2
# [5] = tested on: E. coli UBMS 88-2 (sensitive); experiment: as above; type: cell-based; details: Escherichia coli
# Description: as §1, §2
# [6] = tested on: S. aureus IVES 1983 (MP) (meth. resistant); experiment: as above; type: cell-based; details: Staphylococcus aureus, 18 h
# Description: as §1, §2
# [7] = tested on: S. aureus ATCC 29213 (sensitive); experiment: as above; type: cell-based; details: Staphylococcus aureus, ATCC29213; agar dilution, Muller-Hinton II agar, 18 hours at 35° C.; S. aureus ATCC 29213 (sensitive); read-out: MIC
# Description: as §1, §2
# [8] = tested on: S. aureus UBMS 90-3 (sensitive); experiment: as above; type: cell-based; details: Staphylococcus aureus
# Description: as §1, §2
# S. faecal. ATCC 29212 = experiment: as above; type: cell-based
# Description: as §1, §2
# [9] = tested on: S. aureus UBMS 90-2 (tetM); experiment: microbe, parasite or virus in culture; type: cell-based; details: Staphylococcus aureus, 18 h
# Description: as §1, §2
# E. coli UBMS 88-1 (tetB) = experiment: microbe, parasite or virus in culture; type: cell-based; details: Escherichia coli, 18 h
# Description: as §1, §2
# [10] = tested on: S. aureus UBMS 88-7 (tetK); experiment: microbe, parasite or virus in culture; type: cell-based; details: Staphylococcus aureus, 18 h
# Description: as §1, §2
# [11] = tested on: S. aureus UBMS 88-5 (tetM); experiment: microbe, parasite or virus in culture; type: cell-based; details: Staphylococcus aureus, 18 h
# Description: as §1, §2
# [12] = tested on: S. aureus UBMS 90-1 (tetM); experiment: microbe, parasite or virus in culture; type: cell-based; details: Staphylococcus aureus, 18 h
# Description: as §1, §2
# E. coli UBMS 89-1 (tetM) = experiment: microbe, parasite or virus in culture; type: cell-based; details: Escherichia coli, 18 h
# Description: as §1, §2
# [13] = tested on: S30 extract from E. coli strain MRE 600 (tetracycline sensitive); experiment: E. coli in vitro cell free protein translation system, Wild Type S30; type: biochemical; details: for % Inhibition Wild Type S30: 35S-methionine incorporation, 30 minutes at 37° C.
# Excerpt: (§3) E. coli in Vitro protein Translation System (Table II)
# (§4) An in vitro, cell free, protein translation system using extracts from E. coli strain MRE 600 (tetracycline sensitive) and a derivative of MRE 600 containing the tetM determinant has been developed based on literature methods J. M. Pratt, Coupled Transcription-translation in Prokaryotic Cell-free Systems, Transcription and Translation, a Practical Approach, (B. D. Hames and S. J. Higgins, eds) p. 179-209, IRL Press, Oxford-Washington, 1984!.
# (§5) Using the system described above, the tetracycline compounds of the present invention are tested for their ability to inhibit protein synthesis in vitro. Briefly, each 10 μl reaction contains S30 extract (a whole extract) made from either tetracycline sensitive cells or an isogenic tetracycline resistant (tetM) strain, low molecular weight components necessary for transcription and translation (i.e., ATP and GTP), a mix of 19 amino acids (no methionine), ^35 S labeled methionine, DNA template (either pBR322 or pUC119), and either DMSO (control) or the novel tetracycline compound to be tested ("novel TC") dissolved in DMSO.
# (§6) The reactions are incubated for 30 minutes at 37° C. Timing is initiated with the addition of the S30 extract, the last component to be added. After 30 minutes, 2.5 μl of the reaction is removed and mixed with 0.5 ml of 1N NaOH to destroy RNA and tRNA. Two to three ml of 25% trichloroacetic acid is added and the mixture incubated at room temperature for 15 minutes. The trichloroacetic acid precipitated material is collected on Whatman GF/C filters and washed with a solution of 10% trichloroacetic acid. The filters are dried and the retained radioactivity, representing incorporation of ^35 S-methionine into polypeptides, is counted using standard liquid scintillation methods.
# (§7) The percent inhibition (P.I.) of protein synthesis is determined to be: [formula]
# [14] = tested on: S30 extract from derivative of E. coli MRE 600 containing the tetM determinant; experiment: E. coli in vitro cell free protein translation system, TetM S30; type: biochemical; details: for % Inhibition TetM S30: 35S-methionine incorporation, 30 minutes at 37° C.
# Excerpt: as §3, §4, §5, §6, §7
# [15] = agar dilution, Muller-Hinton II agar, 18 hours at 35° C., S. aureus UBMS 90-3 (sensitive), read-out: MIC
# [16] = ATCC25922, agar dilution, Muller-Hinton II agar, 18 hours at 35° C., E. coli ATCC 25922, read-out: MIC
SMILES,MIC [1] [µg/mL],MIC [2] [µg/mL],MIC (Enteroc. spp. 12201; 18 h) [µg/mL],MIC (S. haemol. AVAH 88-3) [µg/mL],MIC [3] [µg/mL],MIC [4] [µg/mL],MIC ([5]; 18 h) [µg/mL],MIC [6] [µg/mL],MIC [7] [µg/mL],"MIC [8, 15] [µg/mL]",MIC (S. faecal. ATCC 29212; 18 h) [µg/mL],MIC [9] [µg/mL],MIC (E. coli UBMS 88-1 (tetB)) [µg/mL],MIC [10] [µg/mL],MIC [11] [µg/mL],MIC [12] [µg/mL],MIC (E. coli ATCC 25922; [16]) [µg/mL],MIC (E. coli UBMS 89-1 (tetM)) [µg/mL],further results
"CN(C)[C@@H]1C(O)=C(C(N)=O)C(=O)[C@@]2(O)C(O)=C3C(=O)c4c(cc(Cl)c(N)c4O)CC3CC12 (stereo partly drawn) [G, 9-Amino-8-chloro-4-(dimethylamino)-1,4,-4a,5,5a,6,11,12a-octahydro-3,10,12,12a-tetrahydroxy-1,11-dioxo-2-naphthacenecarboxamide]",< 0.015,4,2,0.12,8,< 0.015,4,8,< 0.015,< 0.015,0.25,0.25,> 32,2,1,1,–,–,"MIC (E. coli ATCC 25922; ATCC25922, 18 h): 1 µg/mL"
"CN(C)[C@@H]1C(O)=C(C(N)=O)C(=O)[C@@]2(O)C(O)=C3C(=O)c4c(O)cc(Cl)c(N)c4CC3CC12 (stereo partly drawn) [Compound C, 7-Amino-8-chloro-4-(dimethylamino)-1,4-4a,5,5a,6,11,12a-octahydro-3,10,12,12a-tetrahydroxy-1,11-dioxo-2-naphthacenecarboxamide hydrochloride]",0.25,4,32,1,> 32,0.5,–,> 32,0.12,–,8,8,> 32,> 32,32,32,2,32,"MIC ([5]; agar dilution, Muller-Hinton II agar, 18 hours at 35° C., E. coli UBMS 88-2 (sensitive), read-out: MIC): 2 µg/mL; MIC ([8]; 18 h): 0.12 µg/mL"
"CN(C)c1ccc(O)c2c1C[C@H]1C[C@H]3[C@H](N(C)C)C(O)=C(C(N)=O)C(=O)[C@@]3(O)C(O)=C1C2=O [L, Minocycline hydrochloride, reference compound]",0.03,1,–,–,4,0.03,0.25,4,≤ 0.015,0.03,–,4,16,–,4,4,0.5,8,"% Inhibition Wild Type S30 ([13]; Conc. 0.1 mg/ml): 66%; % Inhibition Wild Type S30 ([13]; Conc. 0.3 mg/ml, hydrochloride): 91%; % Inhibition Wild Type S30 ([13]; Conc. 1.0 mg/ml): 90%; inhibition of protein synthesis, in words ([13]; cell-free extracts from tetracycline susceptible strain MRE600): inhibited; MIC (Enteroc. spp. 12201; agar dilution, Muller-Hinton II agar, 18 hours at 35° C., Enteroc. spp. 12201, read-out: MIC): 8 µg/mL; MIC (S. faecal. ATCC 29212; agar dilution, Muller-Hinton II agar, 18 hours at 35° C., S. faecal. ATCC 29212, read-out: MIC): 1 µg/mL; % Inhibition TetM S30 ([14]; Conc. 0.1 mg/ml): 0%; % Inhibition TetM S30 ([14]; Conc. 0.3 mg/ml): 0%; % Inhibition TetM S30 ([14]; Conc. 1.0 mg/ml, hydrochloride): 19%; % Inhibition TetM S30 ([14]; Conc. 1.0 mg/ml, listed as minocycline, hydrochloride): less than 20%; inhibition of protein synthesis, in words ([14]; cell-free extracts from strain MRE600 (tetM)): resistant"

# From patent US5512553A, “7-(substituted)-8-(substituted)-9-(substituted amino)-6-demethyl-6-deoxytetracyclines” (American Cyanamid Company, priority 1995, dated 1996)
